Results: US20250325508A1, “MODULATORS OF PROTEASOME DYNAMICS AND/OR FUNCTION, COMPOSITIONS, METHODS, AND THERAPEUTIC USES THEREOF” (TECHNION RESEARCH & DEVELOPMENT FOUNDATION LIMITED, priority 2022, published 2025)

Tests used:
exportin1 = molecular target: T1, exportin1 (Homo sapiens, UniProt O14980); assay: Localization of exportin1 substrates (p65, APC, NES-GFP); format: cell-based; details: HeLa cells
T1 construct: endogenous in cells; host or cells: HeLa
Experimental: Cells were seeded on glass cover slips for 36 h. Following the indicated treatments, they were fixed with 4% PFA for 15 min, washed with phosphate-buffered saline (PBS) and incubated in PBS containing 10% goat serum for 1 h at room temperature, followed by 2 h incubation with the indicated primary antibody. Following extensive wash with PBS, the fixed cells were incubated with the relevant secondary antibody for 1 h, washed and mounted. Images were acquired using Zeiss LSM 700 confocal microscope (Zeiss, Oberkochen, Germany).

HeLa cells [1] = assay: Proteomic mass-spectrometric analysis of cellular protein levels; format: cell-based, human; details: St.+LMB or St.+YWF vs Cont.
Experimental: 2-3 mg of cell extract protein in 8 M Urea and 100 mM ammonium bicarbonate, were incubated with DTT (2.8 mM; 30 min at 60° C.), modified with iodoacetamide (8.8 mM; 30 min at room temperature in the dark), and digested (overnight at 37° C.) with modified trypsin (Promega; 1:50 enzyme-to-substrate ratio) in 2 M Urea and 25 mM ammonium bicarbonate. Additional second trypsinization was carried out for 4 h. The tryptic peptides were desalted using Sep-Pak C18 (Waters) and dried. 10 μg of protein were used for proteome analysis as described under Mass spectrometry.
Tryptic peptides were analyzed by LC-MS/MS using a Q Exactive plus mass spectrometer (Thermo Fisher Scientific) fitted with a capillary HPLC (easy nLC 1000, Thermo). […]
The mass spectrometry raw data were analyzed by the MaxQuant software (version 1.4.1.2, http://www.maxquant.org) for peak picking and quantification. […] The MaxQuant software was used for label-free semi-quantitative analysis [based on extracted ion currents (XICs) of peptides], enabling quantification from each LC/MS run for each peptide identified in any of the experiments. In samples that were SILAC-labeled, quantification was also carried out using the MaxQuant software. […]

HeLa cells [2] = assay: Degradation of radiolabeled proteins; format: cell-based, human; details: short-term starvation
Experimental: Cells were labeled with [^35S]-methionine and cysteine (20 μCi/ml) for 16 h. This was followed by extensive washing and further incubation in a medium containing 2 mM of the two unlabeled amino acids for 8 h. Degradation rates were assessed by determining the release of labeled amino acids to the incubation medium relative to the radioactivity remained in the cellular proteins (using Trichloroacetic acid precipitation to separate between the two) [R. Gropper et al., Biomed Biochim Acta 50, 321-332 (1991)]. The figure presents mean+/−SD and Student's T-Test p-values of three replicates.

autophagy = assay: Autophagy (LC3 lipidation, RFP-GFP-LC3 autophagic flux); format: cell-based, human; details: LC3 Western blot and GFP-RFP-LC3 autophagic flux, HeLa cells
Experimental: Cells were washed twice with ice cold PBS and scraped into lysis buffer (50 mM Tris-HCl, pH 7.4, 130 mM NaCl, 0.5% NP-40) supplemented with freshly added protease inhibitor cocktail, 5 mM ATP, 10 mM iodoacetamide, and 5 mM N-ethyl maleimide. Protein concentration was measured by the BCA assay according to the manufacturer's instructions (Pierce, Rockford, IL). 30 μg of cellular protein were resolved via SDS-PAGE, transferred to a nitrocellulose membrane and immunoblotted with the appropriate antibody. Cells stably expressing the fusion of RFP-GFP-LC3 were treated as described and were visualized live, using high-throughput fluorescence microscopy (IXM-C, Molecular Devices) under controlled environment (21% O2, 5% CO2, 37° C.). Analysis of autophagic flux was made based on the differential signal in the green and red channels, as previously described [[…], et al. (2009). Cell 136, 521-534] Due to the instability of GFP in acidic pH, only RFP retains its fluorescence in the acidic lysosome, while both are visible in the autophagosome. The RFP: GFP puncta ratio is indicating the extent of autophagy activation, or flux. The figure presents mean+/-SD and Student's T-Test p-values of three replicates.

Ubiquitin conjugates = Ubiquitin conjugates levels (in-cell Western); format: cell-based, human; details: stress, HeLa cells
Experimental: Cells were seeded in a 96-well plate at a density of 15,000 cells/well. ˜36 h later, cells were treated as described and were visualized live, using high-throughput fluorescence microscopy (IXM-C, Molecular Devices) under a controlled environment (21% O2, 5% CO2, 37° C.). Hoechst 33342 was used to stain nuclei of all cells, and SYTOX™ (Thermo) was used to stain dead cells. Data analysis was performed using the Live/Dead module of the MetaXpress software (Molecular Devices). […] For ubiquitination, the inventors used in-cell Western blotting using an anti-Ub-conj [O. Braten et al., Proc. Natl. Acad. Sci. 113, E4639-47 (2016), and a secondary fluorescent antibody. Intensities were quantified using Li-Cor imager and software (Odyssey).

T1 sequence (O14980 whole entry): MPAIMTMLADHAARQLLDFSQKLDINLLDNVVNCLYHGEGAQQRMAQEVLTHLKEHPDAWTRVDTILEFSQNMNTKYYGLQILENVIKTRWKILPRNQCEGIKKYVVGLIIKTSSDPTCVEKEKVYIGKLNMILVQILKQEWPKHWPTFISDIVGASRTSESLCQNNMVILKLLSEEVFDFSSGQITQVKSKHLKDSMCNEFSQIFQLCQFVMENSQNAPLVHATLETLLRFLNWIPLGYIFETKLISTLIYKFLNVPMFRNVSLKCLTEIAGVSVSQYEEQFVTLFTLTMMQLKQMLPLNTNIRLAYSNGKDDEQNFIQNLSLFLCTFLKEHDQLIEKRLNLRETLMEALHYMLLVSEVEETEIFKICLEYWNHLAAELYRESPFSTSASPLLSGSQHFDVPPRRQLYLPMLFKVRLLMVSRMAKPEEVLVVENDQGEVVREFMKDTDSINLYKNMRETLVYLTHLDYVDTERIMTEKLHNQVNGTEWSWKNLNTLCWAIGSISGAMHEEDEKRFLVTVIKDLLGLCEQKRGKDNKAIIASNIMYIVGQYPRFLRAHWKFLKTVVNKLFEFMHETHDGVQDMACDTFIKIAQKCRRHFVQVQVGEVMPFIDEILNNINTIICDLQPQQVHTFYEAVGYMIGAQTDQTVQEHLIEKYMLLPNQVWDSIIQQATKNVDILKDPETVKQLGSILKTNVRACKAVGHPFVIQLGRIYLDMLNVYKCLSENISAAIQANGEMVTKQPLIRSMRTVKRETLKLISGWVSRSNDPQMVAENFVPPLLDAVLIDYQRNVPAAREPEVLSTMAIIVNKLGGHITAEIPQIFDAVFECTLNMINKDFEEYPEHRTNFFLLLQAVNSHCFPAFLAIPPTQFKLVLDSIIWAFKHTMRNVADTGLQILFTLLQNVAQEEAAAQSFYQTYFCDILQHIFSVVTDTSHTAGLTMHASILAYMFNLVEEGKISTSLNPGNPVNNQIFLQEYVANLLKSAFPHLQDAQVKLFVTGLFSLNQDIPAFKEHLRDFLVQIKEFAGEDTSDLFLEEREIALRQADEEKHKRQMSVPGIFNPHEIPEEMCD

CCC(=C/[C@H](C)C/C=C/C(C)=C/[C@@H](C)C(=O)[C@@H](C)[C@H](O)[C@@H](C)C/C(C)=C/C(=O)O)/C=C/[C@@H]1OC(=O)C=C[C@@H]1C [Leptomycin B]
nuclear export/localization of exportin1 substrates p65 subunit of NF-κB and APC (exportin1): inhibited nuclear export of two known substrates of exportin1
localization of GFP fused to a nuclear export signal (NES) (exportin1; 8 h): nuclear accumulation of GFP fused to a nuclear export signal (NES)
accelerated degradation of cellular proteins upon starvation (HeLa cells [1]): accelerated degradation was prevented
protein breakdown (degradation of radiolabeled proteins) (HeLa cells [2]): near annulment of protein breakdown stimulated by short-term starvation
autophagy under starvation (autophagy): not inhibited
degradation and depletion of ubiquitin adducts (Ubiquitin conjugates): inhibited degradation and depletion of ubiquitin adducts
